pEC50, pIC50: −log10 of the molar value. Read-outs that look alike come from different tables or passages of the source.
Columns and labels:
[1] = test system: Capan-1 cells (K-Ras G12V); experiment: CellTiter-Glo cell viability, Capan-1; type: cell-based, human; conditions: Homo sapiens, CAPAN-1, 120 h, read-out: Capan-1 Cell Viability IC50
How it was run: (§1)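 Endpoint: CellTiter-Glo luminescence on day 5, following ~30 min at room temperature. Data as (sample/mean DMSO)×100, four-parameter logistic fit.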

KRAS G13C = KRAS G13C (Homo sapiens (Human), UniProt P01116+P62937, G13C); experiment: Ras-Raf disruption/FRET/MOA assay (BRAF RBD, Cyclophilin A); type: biochemical; conditions: read-out: KRAS G13C FRET IC50
Sequence of KRAS G13C (P01116 other isoform, or with tags, fused parts or gaps G13C): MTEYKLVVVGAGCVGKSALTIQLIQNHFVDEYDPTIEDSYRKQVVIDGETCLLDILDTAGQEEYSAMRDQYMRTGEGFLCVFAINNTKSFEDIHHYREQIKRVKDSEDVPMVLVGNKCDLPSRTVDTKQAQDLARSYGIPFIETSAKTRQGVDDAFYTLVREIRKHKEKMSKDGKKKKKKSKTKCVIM
Sequence of KRAS G13C (P62937 whole entry): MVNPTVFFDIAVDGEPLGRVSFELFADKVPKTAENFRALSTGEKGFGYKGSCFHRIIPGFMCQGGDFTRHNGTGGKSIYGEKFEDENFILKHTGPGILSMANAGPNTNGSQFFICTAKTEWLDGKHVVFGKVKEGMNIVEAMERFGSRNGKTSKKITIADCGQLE
How it was run: (§2)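 Ras-GMPPNP (12.5 nM), BRAF RBD (50 nM) and 25 μM Cyclophilin A were incubated with compound for 3 h at 25° C, then detected 1.5 h with anti-His Eu and anti-GST APC; IC50 values follow from the reduced TR-FRET ratio.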

KRAS G12V = KRAS G12V (Homo sapiens (Human), UniProt P01116+P62937, G12V); experiment: as above; type: biochemical; conditions: read-out: KRAS G12V FRET IC50
Sequence of KRAS G12V (P01116 other isoform, or with tags, fused parts or gaps G12V): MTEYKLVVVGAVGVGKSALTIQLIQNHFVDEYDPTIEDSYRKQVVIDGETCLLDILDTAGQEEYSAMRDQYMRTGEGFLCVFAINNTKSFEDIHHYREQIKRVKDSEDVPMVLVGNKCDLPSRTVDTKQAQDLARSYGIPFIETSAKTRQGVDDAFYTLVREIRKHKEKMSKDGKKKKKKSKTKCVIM
Sequence of KRAS G12V (P62937 whole entry): as the sequence (P62937 whole entry) above
How it was run: as §2

KRAS G12C = KRAS G12C (Homo sapiens (Human), UniProt P01116+P62937, G12C); experiment: as above; type: biochemical; conditions: read-out: KRAS G12C FRET IC50
Sequence of KRAS G12C (P01116-2 other isoform, or with tags, fused parts or gaps G12C): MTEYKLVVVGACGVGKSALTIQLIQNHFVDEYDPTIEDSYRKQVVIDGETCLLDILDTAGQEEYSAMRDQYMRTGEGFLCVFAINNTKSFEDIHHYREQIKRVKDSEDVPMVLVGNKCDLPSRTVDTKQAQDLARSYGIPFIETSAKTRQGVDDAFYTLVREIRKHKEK
Sequence of KRAS G12C (P62937 whole entry): as the sequence (P62937 whole entry) above
How it was run: as §2

KRAS G13D = KRAS G13D (Homo sapiens (Human), UniProt P01116+P62937, G13D); experiment: as above; type: biochemical; conditions: read-out: KRAS G13D FRET data IC50
Sequence of KRAS G13D (P01116 other isoform, or with tags, fused parts or gaps G13D): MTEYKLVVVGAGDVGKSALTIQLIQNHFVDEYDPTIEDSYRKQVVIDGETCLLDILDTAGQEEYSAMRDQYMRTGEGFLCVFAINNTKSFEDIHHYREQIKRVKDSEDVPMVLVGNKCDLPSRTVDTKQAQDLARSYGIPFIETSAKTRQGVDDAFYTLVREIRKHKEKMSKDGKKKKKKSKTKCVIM
Sequence of KRAS G13D (P62937 whole entry): as the sequence (P62937 whole entry) above
How it was run: as §2

KRAS WT = KRAS WT (Homo sapiens (Human), UniProt P01116+P62937); experiment: as above; type: biochemical; conditions: read-out: KRAS WT FRET data IC50
Sequence of KRAS WT (P01116 other isoform, or with tags, fused parts or gaps): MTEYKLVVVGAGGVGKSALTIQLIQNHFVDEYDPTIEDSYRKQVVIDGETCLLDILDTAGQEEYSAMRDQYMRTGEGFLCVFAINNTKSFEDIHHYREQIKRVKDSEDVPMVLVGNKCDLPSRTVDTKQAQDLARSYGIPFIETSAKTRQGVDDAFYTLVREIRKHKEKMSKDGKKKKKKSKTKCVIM
Sequence of KRAS WT (P62937 whole entry): as the sequence (P62937 whole entry) above
How it was run: as §2

KRAS G12D = KRAS G12D (Homo sapiens (Human), UniProt P01116+P62937, G12D); experiment: as above; type: biochemical; conditions: read-out: KRAS G12D FRET IC50
Sequence of KRAS G12D (P01116 other isoform, or with tags, fused parts or gaps G12D): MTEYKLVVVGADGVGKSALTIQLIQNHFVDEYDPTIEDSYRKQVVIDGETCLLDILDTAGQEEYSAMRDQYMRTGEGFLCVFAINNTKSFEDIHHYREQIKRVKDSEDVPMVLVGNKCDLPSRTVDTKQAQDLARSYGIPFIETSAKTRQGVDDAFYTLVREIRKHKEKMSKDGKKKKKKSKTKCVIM
Sequence of KRAS G12D (P62937 whole entry): as the sequence (P62937 whole entry) above
How it was run: as §2

KRAS G12S = KRAS G12S (Homo sapiens (Human), UniProt P01116+P62937, G12S); experiment: as above; type: biochemical; conditions: read-out: KRAS G12S FRET IC50
Sequence of KRAS G12S (P01116 other isoform, or with tags, fused parts or gaps G12S): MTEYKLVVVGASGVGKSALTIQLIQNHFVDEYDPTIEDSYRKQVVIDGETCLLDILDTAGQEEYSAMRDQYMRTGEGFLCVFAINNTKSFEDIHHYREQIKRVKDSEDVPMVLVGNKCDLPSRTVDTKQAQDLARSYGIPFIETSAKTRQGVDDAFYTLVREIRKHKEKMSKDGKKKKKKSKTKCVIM
Sequence of KRAS G12S (P62937 whole entry): as the sequence (P62937 whole entry) above
How it was run: as §2

NRAS G12C = NRAS G12C (Homo sapiens (Human), UniProt P01111+P62937, G12C); experiment: as above; type: biochemical; conditions: read-out: NRAS G12C FRET data IC50
Sequence of NRAS G12C (P01111 whole entry G12C): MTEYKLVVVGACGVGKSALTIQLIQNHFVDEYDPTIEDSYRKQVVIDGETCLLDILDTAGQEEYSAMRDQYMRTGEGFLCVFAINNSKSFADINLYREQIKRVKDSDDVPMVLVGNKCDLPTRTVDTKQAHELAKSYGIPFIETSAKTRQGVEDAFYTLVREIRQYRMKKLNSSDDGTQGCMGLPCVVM
Sequence of NRAS G12C (P62937 whole entry): as the sequence (P62937 whole entry) above
How it was run: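 TR-FRET read after 1.5 h with 10 nM anti-His Eu-W1024 and 50 nM anti-GST APC, following 3 h at 25 °C of GMPPNP-loaded His6-Ras (12.5 nM), GST-BRAF RBD (50 nM) and Cyclophilin A (25 μM) with compound from 30 μM final, 10 points, 3-fold. IC50 reported; pH 7.3 HEPES, 100 mM NaCl.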

[2] = test system: NCI-H358 cells (K-Ras G12C); experiment: CellTiter-Glo cell viability, NCI-H358; type: cell-based, human; conditions: Homo sapiens, NCI-H358, 120 h, read-out: H358 Cell Viability IC50
How it was run: as §1

[3] = test system: K-Ras G12C (NCI-H358 cells); experiment: Potency assay: pERK in NCI-H358 cells; type: cell-based, human; conditions: Homo sapiens, read-out: pERK EC50 (H358 KRAS G12C)
How it was run: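 Cells plated the day before were exposed for 4 h at 37° C, 5% CO2 to a 10-point, 3-fold DMSO dilution series (10 mM top stock), in duplicate. Phospho-ERK was read by AlphaLISA SureFire Ultra or by In-Cell Western with DRAQ5 DNA stain, and IC50 came from a 4-parameter sigmoidal fit.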

Row | SMILES | pIC50 (KRAS G13C) | pIC50 (KRAS G12V) | pIC50 (KRAS G12C) | pIC50 (KRAS G13D) | pIC50 (KRAS WT) | pIC50 (KRAS G12D) | pIC50 (KRAS G12S) | pIC50 (NRAS G12C) | pIC50 ([2]; K-Ras G12C, 5-day treatment) | pEC50 ([3]; NCI-H358 cells, 4 hours) | pIC50 ([1]; K-Ras G12V, 5-day treatment) | pIC50 [1] | pIC50 [2] | pEC50 ([3]; NCI-H358, 4 h)
1 | CCn1c(-c2cccnc2COC)c2c3cc(ccc31)-c1cc(O)cc(c1)C[C@H](NC(=O)[C@H](C(C)C)N(C)C(=O)OC1COC1)C(=O)N1CCC[C@H](N1)C(=O)OCC(C)(C)C2 [Compound A39] | 6.00 to 7.00 | 6.00 to 7.00 | 6.00 to 7.00 | 6.00 to 7.00 | 6.00 to 7.00 | 5.00 to 6.00 | 6.00 to 7.00 | 6.00 to 7.00 | 6.00 to 7.00 | > 5.30 | 6.00 to 7.00 | – | – | –
2 | CCn1c(-c2cnccc2COC)c2c3cc(ccc31)-c1cc(O)cc(c1)C[C@H](NC(=O)[C@H](C(C)C)N1CCCC1=O)C(=O)N1CCC[C@H](N1)C(=O)OCC(C)(C)C2 [Compound A40] | 6.00 to 7.00 | 6.00 to 7.00 | 6.00 to 7.00 | 6.00 to 7.00 | 6.00 to 7.00 | 5.00 to 6.00 | 6.00 to 7.00 | 6.00 to 7.00 | 5.00 to 6.00 | > 5.30 | 5.00 to 6.00 | – | – | –
3 | CCn1c(-c2cnccc2COC)c2c3cc(ccc31)-c1cc(O)cc(c1)C[C@H](NC(=O)[C@H](C(C)C)N(C)C(=O)[C@H]1CCCN1C)C(=O)N1CCC[C@H](N1)C(=O)OCC(C)(C)C2 [Compound A83] | 6.00 to 7.00 | 6.00 to 7.00 | 6.00 to 7.00 | 6.00 to 7.00 | 6.00 to 7.00 | 6.00 to 7.00 | 6.00 to 7.00 | 6.00 to 7.00 | 5.00 to 6.00 | > 5.30 | 5.00 to 6.00 | – | – | –
4 | CCn1c(-c2cccnc2[C@H](C)OC)c2c3cc(ccc31)-c1csc(n1)C[C@H](NC(=O)[C@H](C(C)C)N(C)C(=O)N1CC3CC(C1)O3)C(=O)N1CCC[C@H](N1)C(=O)OCC(C)(C)C2 [Compound A301] | 5.00 to 6.00 | 6.00 to 7.00 | 6.00 to 7.00 | 5.00 to 6.00 | 6.00 to 7.00 | 5.00 to 6.00 | 6.00 to 7.00 | 6.00 to 7.00 | – | – | – | 6.00 to 7.00 | 7.00 to 8.00 | > 5.30

Further lines, with some results ahead:

Row | pIC50 (KRAS G13C) | pIC50 (KRAS G12V) | pIC50 (KRAS G12C) | pIC50 (KRAS G13D) | pIC50 (KRAS WT) | pIC50 (KRAS G12D) | pIC50 (KRAS G12S) | pIC50 (NRAS G12C) | pIC50 ([2]; K-Ras G12C, 5-day treatment) | pEC50 ([3]; NCI-H358 cells, 4 hours) | SMILES | pIC50 ([1]; K-Ras G12V, 5-day treatment) | pIC50 [1] | pIC50 [2] | pEC50 ([3]; NCI-H358, 4 h)
5 | 7.00 to 8.00 | 5.00 to 6.00 | 6.00 to 7.00 | 7.00 to 8.00 | 6.00 to 7.00 | 6.00 to 7.00 | 6.00 to 7.00 | 6.00 to 7.00 | 6.00 to 7.00 | > 5.30 | CCn1c(-c2cccnc2[C@H](C)OC)c2c3cc(ccc31)-c1cc(O)cc(c1)C[C@H](NC(=O)[C@H](C(C)C)N(C)C(=O)O[C@H]1CCN(C)C1)C(=O)N1CCC[C@H](N1)C(=O)OCC(C)(C)C2 [Compound A169] | 6.00 to 7.00 | – | – | –
6 | 7.00 to 8.00 | 7.00 to 8.00 | 7.00 to 8.00 | 7.00 to 8.00 | 7.00 to 8.00 | 6.00 to 7.00 | 7.00 to 8.00 | 7.00 to 8.00 | 7.00 to 8.00 | > 5.30 | CCn1c(-c2cccnc2[C@H](C)OC)c2c3cc(ccc31)-c1cc(O)cc(c1)C[C@H](NC(=O)[C@H](C(C)C)N(C)C(=O)[C@H]1CCN(C(=O)OC3CC3)C1)C(=O)N1CCC[C@H](N1)C(=O)OCC(C)(C)C2 [Compound A202] | 7.00 to 8.00 | – | – | –
7 | 7.00 to 8.00 | 7.00 to 8.00 | 7.00 to 8.00 | 7.00 to 8.00 | 7.00 to 8.00 | 7.00 to 8.00 | 7.00 to 8.00 | 7.00 to 8.00 | 7.00 to 8.00 | > 5.30 | CCn1c(-c2cccnc2[C@H](C)OC)c2c3cc(ccc31)-c1cc(O)cc(c1)C[C@H](NC(=O)[C@H](C(C)C)N(C)C(=O)C1CCc3ncccc3C1)C(=O)N1CCC[C@H](N1)C(=O)OCC(C)(C)C2 (stereo partly shown) [Compound A247] | 7.00 to 8.00 | – | – | –
8 | 6.00 to 7.00 | 6.00 to 7.00 | 6.00 to 7.00 | 5.00 to 6.00 | 6.00 to 7.00 | 5.00 to 6.00 | 5.00 to 6.00 | 6.00 to 7.00 | 6.00 to 7.00 | > 5.30 | CCn1c(-c2cccnc2[C@H](C)OC)c2c3cc(ccc31)-c1csc(n1)C[C@H](NC(=O)[C@H](C(C)C)N(C)S(=O)(=O)N1CC(OC)C1)C(=O)N1CCC[C@H](N1)C(=O)OCC(C)(C)C2 [Compound A322] | 6.00 to 7.00 | – | – | –
